# Measurements published in patent US20200131669A1, “CYCLIC PEPTIDE COMPOUND HAVING HIGH MEMBRANE PERMEABILITY, AND LIBRARY CONTAINING SAME” (Chugai Seiyaku Kabushiki Kaisha, priority 2017, published 2020).
# Starred links: 1 amine or outer side, 2 acyl side, 3 side chain; linkers in the order of their positions; H or OH if unused. Positions of bridges follow the written chain, without caps; N, C: chain ends. Non-standard residues stand in square brackets, D forms with d. Residues, ends and D or L forms follow the SMILES beside them. ξ: configuration not given here. *: point of attachment. Glu(NHSO2Me) = CS(=O)(=O)NC(=O)CC[C@H](N)C(=O)O; NMePhe(3-Cl) = CN[C@@H](Cc1cccc(Cl)c1)C(=O)O; NMeF = CN[C@@H](Cc1ccccc1)C(=O)O; NMeGABA = CN(CCCC(=O)[*:2])[*:1]; ξThr(3R) = C[C@@H](O)C(N)C(=O)O; NMeL = CN[C@@H](CC(C)C)C(=O)O; NMeV = CN[C@H](C(=O)O)C(C)C; NMeAbu = CC[C@H](NC)C(=O)O; NMeA = CN[C@@H](C)C(=O)O; Piperidide = C1CCN(*)CC1; Me2NCH2CH2 = CN(C)CC*; NBuGly = CCCCNCC(=O)O; Isopentyl = CC(C)CC*; NPrGly = CCCNCC(=O)O; ξS = NC(CO)C(=O)O; Sar = CNCC(=O)O; tBu = CC(C)(C)*
# Assay: Caco-2 membrane permeability, improved method as used in the following Examples (96-well, 20 to 24 h preincubation)
# Assay type: in vitro ADME
# Settings: human, Caco-2, Caco-2
# Protocol: In the following Examples, membrane permeability was measured in accordance with the improved method established as described above. Specifically, Caco-2 cells were cultured on a 96-well Transwell for three weeks, after which DMEM+FaSSIF (1% DMSO)+compound were added to the apical side and DMEM was added to the basal side, and the cells were preincubated at 5% CO2, 37° C., and 80 rpm for 20 to 24 hours. Following the preincubation, measurement of membrane permeability was initiated by removing the preincubation solution on the apical and basal sides by suction, washing the membrane, and adding FaSSIF/HBSS buffer (1% DMSO) (pH 6.0) containing the compound to the apical side and HBSS buffer (4% BSA) (pH 7.4) to the basal side. Each well was shaken at 5% CO2, 37° C., and 80 rpm, and 180 minutes after the initiation, the sample on the basal side was collected and the permeation amount was measured by LC/MS. The membrane permeability coefficient (Papp) was calculated from the permeation amount. Herein, the terms “Caco-2 (cm/sec)” in the columns in the tables and “Papp (cm/sec)” are used in the same meaning.
row,SMILES,Papp A→B at 180 min [×10⁻⁶ cm/s]
1,CCCN1CC(=O)N(C)[C@@H](CC(C)C)C(=O)N[C@@H](COC(C)(C)C)C(=O)N(C)[C@@H](Cc2ccccc2)C(=O)N(C)[C@@H](C(C)C)C(=O)N[C@H](C(=O)N2CCCCC2)CC(=O)N[C@H](C(C)C)C(=O)N(C)[C@@H](Cc2ccccc2)C(=O)N[C@@H](COCCN(C)C)C(=O)N(C)[C@@H](CC(C)C)C(=O)N[C@@H]([C@@H](C)O)C1=O [pd50] ([dV][NMeF]S(Me2NCH2CH2)[NMeL]T[NPrGly][NMeL]S(tBu)[NMeF][NMeV]D-Piperidide; lactam N-11),0.15
2,CCCCN1CC(=O)N(C)[C@@H](CC(C)C)C(=O)N[C@@H](COCCN(C)C)C(=O)N(C)[C@@H](Cc2ccccc2)C(=O)N(C)[C@@H](C(C)C)C(=O)N[C@H](C(=O)N2CCCCC2)CC(=O)N[C@H](CC(C)C)C(=O)N(C)[C@@H](Cc2ccccc2)C(=O)N[C@@H](CC(C)C)C(=O)N(C)[C@@H](CC(C)C)C(=O)N[C@@H]([C@@H](C)O)C1=O [pd51] ([dL][NMeF]L[NMeL]T[NBuGly][NMeL]S(Me2NCH2CH2)[NMeF][NMeV]D-Piperidide; lactam N-11),0.07
3,CCCN1CC(=O)N(C)[C@@H](CC(C)C)C(=O)N[C@@H](COCCN(C)C)C(=O)N(C)[C@@H](Cc2ccccc2)C(=O)N(C)[C@@H](C(C)C)C(=O)N[C@H](C(=O)N2CCCCC2)CC(=O)N[C@H](C(C)C)C(=O)N(C)[C@@H](Cc2ccccc2)C(=O)N[C@@H](CC(C)C)C(=O)N(C)[C@@H](CC(C)C)C(=O)N[C@@H]([C@@H](C)O)C1=O [pd52] ([dV][NMeF]L[NMeL]T[NPrGly][NMeL]S(Me2NCH2CH2)[NMeF][NMeV]D-Piperidide; lactam N-11),0.12
4,CCCCN1CC(=O)N(C)[C@@H](CC(C)C)C(=O)N[C@@H](COC(C)(C)C)C(=O)N(C)[C@@H](Cc2ccccc2)C(=O)N(C)[C@@H](C(C)C)C(=O)N[C@H](C(=O)N2CCCCC2)CC(=O)N[C@H](C(C)C)C(=O)N(C)[C@@H](Cc2ccccc2)C(=O)N[C@@H](COCCN(C)C)C(=O)N(C)[C@@H](CC(C)C)C(=O)N[C@@H]([C@@H](C)O)C1=O [pd53] ([dV][NMeF]S(Me2NCH2CH2)[NMeL]T[NBuGly][NMeL]S(tBu)[NMeF][NMeV]D-Piperidide; lactam N-11),0.14
5,CC(C)C[C@@H]1NC(=O)[C@H](CC(C)C)N(C)C(=O)CCCN(C)C(=O)C[C@@H](C(=O)N2CCCCC2)NC(=O)[C@H](CC(C)C)N(C)C(=O)[C@H](CC(C)C)N(C)C(=O)[C@H]([C@@H](C)O)NC(=O)[C@H](CC(C)C)N(C)C(=O)[C@H](COCCN(C)C)NC(=O)[C@H](Cc2ccccc2)N(C)C(=O)[C@H](Cc2ccccc2)N(C)C1=O [pd54] ([NMeGABA][NMeL]L[NMeF][NMeF]S(Me2NCH2CH2)[NMeL]T[NMeL][NMeL]D-Piperidide; lactam N-11),0.073
6,CCCCN1CC(=O)N(C)[C@@H](C(C)C)C(=O)N[C@H](C(=O)N2CCCCC2)CC(=O)N(C)[C@@H](C)C(=O)N[C@@H](COCCN(C)C)C(=O)N(C)[C@@H](CC(C)C)C(=O)N(C)[C@@H](Cc2ccccc2)C(=O)N[C@@H](CC(C)C)C(=O)N(C)[C@@H](Cc2ccccc2)C(=O)N(C)[C@@H](CC(C)C)C(=O)N[C@@H]([C@@H](C)O)C1=O [pd56] ([NMeA]S(Me2NCH2CH2)[NMeL][NMeF]L[NMeF][NMeL]T[NBuGly][NMeV]D-Piperidide; lactam N-11),0.12
7,CCCN1CC(=O)N(C)[C@@H](C(C)C)C(=O)N[C@H](C(=O)N2CCCCC2)CC(=O)N(C)[C@@H](C)C(=O)N[C@@H](CC(C)C)C(=O)N(C)[C@@H](CC(C)C)C(=O)N(C)[C@@H](Cc2ccccc2)C(=O)NC(COCCN(C)C)C(=O)N(C)[C@@H](Cc2ccccc2)C(=O)N(C)[C@@H](CC(C)C)C(=O)N[C@@H]([C@@H](C)O)C1=O (stereo partly drawn) [pd57] ([NMeA]L[NMeL][NMeF][ξS](Me2NCH2CH2)[NMeF][NMeL]T[NPrGly][NMeV]D-Piperidide; lactam N-11),0.12
8,CCCCN1CC(=O)N(C)[C@@H](Cc2ccccc2)C(=O)N[C@@H](COCCN(C)C)C(=O)N(C)[C@@H](CC(C)C)C(=O)N[C@@H]([C@@H](C)O)C(=O)N(C)CC(=O)N(C)[C@@H](Cc2ccccc2)C(=O)N(C)[C@@H](CC)C(=O)N[C@@H](COCCC(C)C)C(=O)N(C)[C@@H](CC(C)C)C(=O)N[C@H](C(=O)N2CCCCC2)CC1=O [pd58] ([NBuGly][NMeF]S(Me2NCH2CH2)[NMeL]T[Sar][NMeF][NMeAbu]S(Isopentyl)[NMeL]D-Piperidide; lactam N-11),0.021
9,CCCCN1CC(=O)N(C)[C@@H](CC(C)C)C(=O)N[C@@H](CC(C)C)C(=O)N(C)[C@@H](Cc2ccccc2)C(=O)N(C)[C@@H](C(C)C)C(=O)N[C@H](C(=O)N2CCCCC2)CC(=O)N[C@H](CC(C)C)C(=O)N(C)[C@@H](Cc2cccc(Cl)c2)C(=O)N[C@@H](CCC(=O)NS(C)(=O)=O)C(=O)N(C)[C@@H](CC(C)C)C(=O)NC([C@@H](C)O)C1=O (stereo partly drawn) [pd59] ([dL][NMePhe(3-Cl)][Glu(NHSO2Me)][NMeL][ξThr(3R)][NBuGly][NMeL]L[NMeF][NMeV]D-Piperidide; lactam N-11),< 0.0088
10,CCCCN1CC(=O)N(C)[C@@H](CC(C)C)C(=O)N[C@@H](CCC(=O)NS(C)(=O)=O)C(=O)N(C)[C@@H](Cc2cccc(Cl)c2)C(=O)N(C)[C@@H](C(C)C)C(=O)N[C@H](C(=O)N2CCCCC2)CC(=O)N[C@H](CC(C)C)C(=O)N(C)[C@@H](Cc2cccc(Cl)c2)C(=O)N[C@@H](CC(C)C)C(=O)N(C)[C@@H](CC(C)C)C(=O)N[C@@H]([C@@H](C)O)C1=O [pd60] ([dL][NMePhe(3-Cl)]L[NMeL]T[NBuGly][NMeL][Glu(NHSO2Me)][NMePhe(3-Cl)][NMeV]D-Piperidide; lactam N-11),0.01
11,CCCCN1CC(=O)N(C)[C@@H](CC(C)C)C(=O)N[C@@H](CCC(=O)NS(C)(=O)=O)C(=O)N(C)[C@@H](Cc2cccc(Cl)c2)C(=O)N(C)[C@@H](C(C)C)C(=O)N[C@H](C(=O)N2CCCCC2)CC(=O)N[C@H](CC(C)C)C(=O)N(C)[C@@H](Cc2cccc(Cl)c2)C(=O)N[C@@H](CC(C)C)C(=O)N(C)[C@@H](CC)C(=O)N[C@@H]([C@@H](C)O)C1=O [pd61] ([dL][NMePhe(3-Cl)]L[NMeAbu]T[NBuGly][NMeL][Glu(NHSO2Me)][NMePhe(3-Cl)][NMeV]D-Piperidide; lactam N-11),< 0.094
12,CCCCN1CC(=O)N(C)[C@@H](C(C)C)C(=O)N[C@H](C(=O)N2CCCCC2)CC(=O)N(C)[C@@H](CC(C)C)C(=O)N[C@@H](CCC(=O)NS(C)(=O)=O)C(=O)N(C)[C@@H](CC(C)C)C(=O)N(C)[C@@H](Cc2ccccc2)C(=O)N[C@@H](CC(C)C)C(=O)N(C)[C@@H](Cc2ccccc2)C(=O)N(C)[C@@H](CC(C)C)C(=O)N[C@@H]([C@@H](C)O)C1=O [pd62] ([NMeL][Glu(NHSO2Me)][NMeL][NMeF]L[NMeF][NMeL]T[NBuGly][NMeV]D-Piperidide; lactam N-11),< 0.13
13,CCCCN1CC(=O)N(C)[C@@H](C(C)C)C(=O)N[C@H](C(=O)N2CCCCC2)CC(=O)N(C)[C@@H](CC)C(=O)N[C@@H](CCC(=O)NS(C)(=O)=O)C(=O)N(C)[C@@H](CC(C)C)C(=O)N(C)[C@@H](Cc2cccc(Cl)c2)C(=O)N[C@@H](CC(C)C)C(=O)N(C)[C@@H](Cc2ccccc2)C(=O)N(C)[C@@H](CC(C)C)C(=O)N[C@@H]([C@@H](C)O)C1=O [pd63] ([NMeAbu][Glu(NHSO2Me)][NMeL][NMePhe(3-Cl)]L[NMeF][NMeL]T[NBuGly][NMeV]D-Piperidide; lactam N-11),< 0.1
14,CCCCN1CC(=O)N(C)[C@@H](CC(C)C)C(=O)N[C@H](C(=O)N2CCCCC2)CC(=O)N(C)[C@@H](CC(C)C)C(=O)N[C@@H](CC(C)C)C(=O)N(C)[C@@H](CC)C(=O)N(C)[C@@H](Cc2ccccc2)C(=O)N[C@@H](CCC(=O)NS(C)(=O)=O)C(=O)N(C)[C@@H](Cc2cccc(Cl)c2)C(=O)N(C)[C@@H](CC(C)C)C(=O)NC([C@@H](C)O)C1=O (stereo partly drawn) [pd64] ([NMeL]L[NMeAbu][NMeF][Glu(NHSO2Me)][NMePhe(3-Cl)][NMeL][ξThr(3R)][NBuGly][NMeL]D-Piperidide; lactam N-11),0.15
15,CCCCN1CC(=O)N(C)[C@@H](Cc2ccccc2)C(=O)N[C@@H](CCC(=O)NS(C)(=O)=O)C(=O)N(C)[C@@H](CC(C)C)C(=O)N[C@@H]([C@@H](C)O)C(=O)N(CCCC)CC(=O)N(C)[C@@H](Cc2ccccc2)C(=O)N(C)[C@@H](CC(C)C)C(=O)N[C@@H](CC(C)C)C(=O)N(C)[C@@H](CC(C)C)C(=O)N[C@H](C(=O)N2CCCCC2)CC1=O [pd65] ([NBuGly][NMeF][Glu(NHSO2Me)][NMeL]T[NBuGly][NMeF][NMeL]L[NMeL]D-Piperidide; lactam N-11),0.06
16,CCCCN1CC(=O)N(C)[C@@H](Cc2cccc(Cl)c2)C(=O)N[C@@H](CCC(=O)NS(C)(=O)=O)C(=O)N(C)[C@@H](CC(C)C)C(=O)N[C@@H]([C@@H](C)O)C(=O)N(CCCC)CC(=O)N(C)[C@@H](Cc2ccccc2)C(=O)N(C)[C@@H](CC(C)C)C(=O)N[C@@H](CC(C)C)C(=O)N(C)[C@@H](CC(C)C)C(=O)N[C@H](C(=O)N2CCCCC2)CC1=O [pd66] ([NBuGly][NMePhe(3-Cl)][Glu(NHSO2Me)][NMeL]T[NBuGly][NMeF][NMeL]L[NMeL]D-Piperidide; lactam N-11),0.09

# Same assay, conditions: human; Papp; Table 25, cyclic peptides containing Ser(Et-2-NMe2) or Gln(Ms), not in table head; read-out: Caco-2
row,SMILES,Papp A→B at 180 min [×10⁻⁶ cm/s]
1,CC(C)C[C@@H]1NC(=O)[C@H](Cc2ccccc2)N(C)C(=O)[C@H](Cc2ccccc2)N(C)C(=O)[C@H](COCCN(C)C)NC(=O)[C@H](CC(C)C)N(C)C(=O)CCCN(C)C(=O)C[C@@H](C(=O)N2CCCCC2)NC(=O)[C@H](CC(C)C)N(C)C(=O)[C@H](CC(C)C)N(C)C(=O)[C@H]([C@@H](C)O)NC(=O)[C@H](CC(C)C)N(C)C1=O [pd55] ([NMeGABA][NMeL]S(Me2NCH2CH2)[NMeF][NMeF]L[NMeL]T[NMeL][NMeL]D-Piperidide; lactam N-11),0.1
